For nine compounds, IC50 results are on record in patent US5424334A, “Peptide mimetic compounds useful as platelet aggregation inhibitors” (G. D. Searle & Co., priority 1991, dated 1995).

Where a name gives a salt, the structure may show the parent alone.

In the assay the test system is Dog PRP (platelet aggregation). Put plainly: In-vitro platelet aggregation in PRP (ADP-induced). The note with it: Canis lupus familiaris, adenosine 5'diphosphate (ADP) induced, by linear regression of dose response curve. The class given is cell-based. As to the method:
In-Vitro Platelet Aggregation in PRP
Healthy male or female dogs were fasted for 8 hours prior to drawing blood; then 30 ml whole blood was collected using a butterfly needle and 30 cc plastic syringe with 3 ml of 0.129M buffered sodium citrate (3.8%). The syringe was rotated carefully as blood was drawn to mix the citrate. Platelet-rich plasma (PRP) was prepared by centrifugation at 975× g for 3.17 minutes at room temperature, allowing the centrifuge to coast to a stop without braking. The PRP was removed from the blood with a plastic pipette and placed in a plastic capped, 50 ml Corning conical sterile centrifuge tube which was held at room temperature. Platelet poor plasma (PPP) was prepared by centrifuging the remaining blood at 2000× g for 15 minutes at room temperature allowing the centrifuge to coast to a stop without braking. The PRP was adjusted with PPP to a count of 2-3×10^8 platelets per ml. 400 μl of the PRP preparation and 50 μl of the compound to be tested or saline were preincubated for 1 minute at 37° C. in a BioData aggregometer (BioData, Horsham, Pa.). 50 μl of adenosine 5'diphosphate (ADP) (50 μm final concentration) was added to the cuvettes and the aggregation was monitored for 1 minute. All compounds are tested in duplicate. Results are calculated as follows:
Percent of control=[(maximal OD minus initial OD of compound) divided by (maximal OD minus initial OD of control saline)]×100. The % inhibition=100-(percent of control).
In Table A, two readings given in a single box indicate that two trials, rather than a single trial, were run for that particular compound in that particular assay.

For the compound `N=C(N)c1ccc(CCCCNC(=O)[C@@H](CC(=O)O)NC(=O)OCc2ccccc2)cc1` [Compound 52513, 4-[[4-[4-(aminoiminomethyl)phenyl]butyl]amino]-4-oxo-3(R)-[[(Phenylmethoxy)carbonyl]amino]butanoic acid], the 50% inhibitory concentration (IC50) came out at 3 µM.

The compound `N=C(N)c1ccc(CCCCNC(=O)[C@@H](CCC(=O)O)NC(=O)OCc2ccccc2)cc1` [Compound 52809, 5-[[4-[4-(aminoiminomethyl)phenyl]butyl]amino]-5-oxo-4(R)-[[(phenylmethoxy)carbonyl]amino]pentanoic acid] yielded an IC50 of 1.8 µM.

The compound `N=C(N)c1ccc(CCCCNC(=O)[C@H](CCC(=O)O)NC(=O)OCc2ccccc2)cc1` [Compound 52828, 5-[[4-[4-(aminoiminomethyl)phenyl]butyl]amino]-5-oxo-4(S)-[[(phenylmethoxy)carbonyl]amino]pentanoic acid] displayed a 50% inhibitory concentration (IC50) of 4.2 µM.

Consider `Cc1ccc(S(=O)(=O)N[C@H](CC(=O)O)C(=O)NCCCCc2ccc(C(=N)N)cc2)cc1` [Compound 53010, 4-[[4-[4-(aminoiminomethyl)phenyl]butyl]amino]-4-oxo-3R-[[(4-methylphenyl)sulfonyl]amino]butanoic acid], for which the IC50 was 6 µM.

`CCOC(=O)CC[C@@H](NC(=O)OCc1ccccc1)C(=O)NCCCCc1ccc(C(=N)N)cc1` [Compound 53033, ethyl 5-[[4-[4-(aminoiminomethyl)phenyl]butyl]amino]-5-oxo-4R-[[(phenylmethoxy)carbonyl]amino]pentanoate, monohydrochloride] came in with an IC50 of 7 µM.

`CS(=O)(=O)N[C@H](CCC(=O)O)C(=O)NCCCCc1ccc(C(=N)N)cc1` [Compound 53065, 5-[[4-[4-(aminoiminomethyl)phenyl]butyl]amino]-5-oxo-4(R)-methylsulfonylaminopentanoic acid] showed a half-maximal inhibitory concentration (IC50) of 3.5 µM.

Compound `N=C(N)c1ccc(CCCCNC(=O)[C@H](CCC(=O)O)NC(=O)CCc2ccccc2)cc1` [Compound 53112, 5-[[4-[4-(aminoiminomethyl)phenyl]butyl]amino]-5-oxo-4S-[1-oxo-3-phenylpropylamino]pentanoic acid] yielded a half-maximal inhibitory concentration (IC50) of 1.9 µM.

With `N=C(N)c1ccc(CCCCNC(=O)[C@@H](CC(=O)O)NC(=O)CCc2ccccc2)cc1` [Compound 53143, 4-[[4-[4-(aminoiminomethyl)phenyl]butyl]amino]-4-oxo-3R-[(1-oxo-3-phenylpropyl)amino]butanoic acid], 4.1 µM corresponded to half-maximal inhibition (IC50).

`N=C(N)c1ccc(C#CCCCNC(=O)[C@@H](CCC(=O)O)NC(=O)OCc2ccccc2)cc1` [Compound 53314, 5-[[5-[4-(aminoiminomethyl)phenyl]-4-pentynyl]amino]-5-oxo-4R-[[(phenylmethoxy)carbonyl]amino]pentanoic acid] showed an IC50 of 2 µM.
